# Test results published in US20230255906A1, “Targeting Serpin B9 in Cancer” (The Brigham and Women`s Hospital, Inc., priority 2020, published 2023).
# What was measured:
# B16 melanoma cells = test: Caspase-3 activity assay (EnzChek Caspase-3 Assay Kit), caspase-3 induction in tumor cells; assay type: cell-based, mouse; settings: 200 μM
# Procedure, shortened: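 B16 melanoma cells exposed to compounds for 24 h, lysed on ice 30 min, and lysate incubated with Z-DEVD-R110 substrate about 30 min at room temperature. Fluorescence read at ~496/520 nm against untreated-cell and no-enzyme controls; caspase-3 induction serves as surrogate for GrB activity from Sb9 inhibition.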
# A375 human melanoma = A375 human melanoma tumors in NSG mice; assay type: in vivo, mouse; settings: 300 μg i.p. bid for 14 days
# Procedure: FIGS. 10D-10E. […] Data are expressed as means±SEM. *P<0.05 (Student's t-test). Mean survival time (MST) is increased in mice treated with the compound of Formula (III) as compared to Control group (FIG. 10E).
# (§1) Mice were anesthetized with isoflurane, and tumor cell lines (B16, A375, and 4T1) were gently injected subcutaneously in the flanks or mammary glands of mice. One hundred thousand cells (1×10^5 cells) were injected per mouse for most of the experiments. However, twenty-five thousand cells (25×10^3 cells) were injected per mouse for the experiments using the compound of Formula (III). Upon 4 hrs post-implantation, 300 μg of the compound of Formula (III) was administered twice a day intraperitoneally for 14 days. Tumor growth was monitored three times per week by digital caliper (Fisherbrand™ Traceable™ Digital Calipers).
# To assess if the anti-tumor effects of the compound of Formula (III) were generalizable to human diseases, the efficacy in an NSG humanized mouse model of A375 human melanoma was also tested. […] Thus, the compound of Formula (III) can inhibit Sb9 in melanoma tumor cells and render them susceptible to GrB-mediated apoptosis.
# 4T1 breast tumors = test: 4T1 breast tumor model in BALB/c mice; assay type: in vivo, mouse
# Procedure: as §1
# Sb9 is highly expressed in human primary breast tumor cells (FIG. 6D) and in the stromal cells within the TME (FIGS. 6D-6E). Whether the compound of Formula (III) could be used to treat mice implanted with 4T1 breast tumor cells was therefore determined. […] Treatment with the compound of Formula (III) increased the median survival time (MST) of mice bearing 4T1 breast tumors and receiving treatment with the compound of Formula (III) as compared to mice bearing 4T1 breast tumors and not receiving treatment (MST=28 days vs MST=22 days, respectively) (FIG. 6G).
# For mouse Breast Cancer model, 1×10^5 4T1 cells were subcutaneously implanted into the fourth mammary pad of BABL/c mice, and mice were separated randomly into three groups: Control, compound of Formula (I), and compound of Formula (II). In the compound of Formula (I) group, mice were treated with the compound of Formula (I) for 14 days consecutively ([…], i.p, twice a day). In the compound of Formula (II) group, mice were administrated the compound of Formula (II) 14 days consecutively (300 μg/mouse, i.p, twice a day). Tumor sizes were measured every 3 days from day 5 post-tumor implantation and calculated with formula length×width^2/2.
# [1] = system: RENCA mouse kidney tumors; test: RENCA kidney tumor model in BALB/c mice; assay type: in vivo; settings: 300 μg i.p. bid for 21 days
# Description: FIGS. 6N-6O. […] Data are expressed as means±SEM. *P<0.05, **P<0.01 (Student's t-test). Mean survival time (MST) is increased in mice treated with the compound of Formula (III) as compared to Control group (FIG. 6O).
# (§2) Furthermore, similar antitumor effects and increased MST using the compound of Formula (III) in two other in vivo tumor models were observed: Renca renal cell carcinoma and LLC1 lung cancer (FIGS. 6M-6Q). Thus, inhibition of Sb9 by the compound of Formula (III) has potent anti-tumor effects in a broad spectrum of tumors, including melanomas as well as breast, lung, and kidney tumors.
# LLC1 mouse lung tumors = test: LLC1 lung tumor model in C57BL/6 mice; assay type: in vivo; settings: 300 μg i.p. bid for 21 days
# Description: FIGS. 6P-6Q. […] Data are expressed as means±SEM. *P<0.05 (Student's t-test). Mean survival time (MST) is increased in mice treated with the compound of Formula (III) as compared to Control group (FIG. 6Q).
# as §2
# LAMP1 = LAMP1 / lysosome fluorescence micrographs; assay type: cell-based
# Description: FIG. 4H. […] DAPI was used to counterstain the cell nuclei. Scale bar: 10 μm.
# Lysosomes have a pH of 4 and are the most acidic compartment within cells. Therefore, it was hypothesized that lysosomes contain an environment that is conducive for the binding between the compound of Formula (III) and Sb9. Both Sb9 and GrB were co-localized in the lysosomes of B16 melanoma cells (FIG. 4F).
# GrB = test: Grantoxilux assay of GrB activity in B16 cells; assay type: cell-based, mouse; settings: 200 μM, 24 h
# [2] = system: B16-Sb9 KO melanoma cells; test: Apoptosis by flow cytometry (Annexin-V, viability dye) in Sb9 knockout cells; assay type: cell-based, mouse; settings: 50 μM, 100 μM, and 200 μM
# Procedure: FIG. 5M. […] Cells treated with PBS alone were used as a negative control. Data are expressed as means±SD from three independent experiments.
# To evaluate the off-target effects of the compound of Formula (III) to Sb9 proteins, the B16-Sb9 KO melanoma cells were treated with various concentrations of the compound of Formula (III). […] Furthermore, the antitumor effects of the compound of Formula (III) on the Sb9 KO mice bearing B16-Sb9 KO tumors, as compared to control group were not observed (FIG. 5N).
smiles,measurement,setting,value
"O=C(O)c1ccc2ncoc2c1 [Formula (III), 1,3-benzoxazole-6-carboxylic acid]","increase in caspase-3 activity compared to 3,4-dihydroxybenzoic acid",B16 melanoma cells; 24 h,~4 fold
same,GrB-mediated apoptosis (caspase-3 activity),B16 melanoma cells; GrB inhibitor (368050) 10 μM,induced GrB-mediated apoptosis
same,MST vs control,A375 human melanoma,increased MST
same,reduction of size of human melanoma tumors vs controls,A375 human melanoma,2.1 fold
same,levels of stromal cells and CAFs in breast tumors,4T1 breast tumors; 17 days post-implantation,reduced levels
same,reduction of size of 4T1-derived tumors vs control,"4T1 breast tumors; BALB/c mice, 300 μg i.p. bid for 14 days",2.5 fold
same,median survival time (MST),"4T1 breast tumors; mice bearing 4T1 breast tumors, 300 μg i.p. bid for 14 days",28 days
same,Mean survival time (MST) vs Control,[1],increased
same,tumor growth vs control,[1]; male BALB/c mice,significantly slower growth
same,Mean survival time (MST) vs Control,LLC1 mouse lung tumors,increased
same,tumor growth vs control,LLC1 mouse lung tumors; C57BL/6-WT mice,significantly slower growth
same,LAMP1 expression and lysosome areas,LAMP1,significantly increased the LAMP1 expressions
same,activity of GrB,GrB,increased activity of GrB
same,additional apoptosis in Sb9 knockout cells (off-target),[2],No additional apoptotic effect
